From patent US20050261264A1, “Rare-earth ternary complex” (priority 2000, published 2005)

How the values were obtained:
Assay type in all cases: physicochemical
[1] = Miscibility with solvents, visual evaluation at 5 wt %; design: key: ⊚: dissolves at room temperature; ◯: dissolves when heated for 5 minutes at 40° C.; Δ: dissolves under heating, but cooling precipitates crystals; X: does not dissolve; settings: complex added at 5 wt %
Description: (§1) The miscibility of the rare earth complex with various media was evaluated as follows.
1) Miscibility with Solvents

[2] = Number of moles of bound water per mole of complex (TG-DTA); settings: for Bound water (number of moles of bound water per mole of complex): Table 1, dried samples for the ternary complexes
Description: The number of moles of bound water per mole of complex was measured using a TG-DTA 2000 from MAC Science.
A 20 g quantity of Eu(PMS)3 was added to 100 mL of isopropanol, then 43 g ([…] the molar amount of the Eu(PMS)3) of triphenylphosphine oxide (hereinafter referred to as TPPO) was added, and the system was refluxed for 3 hours, and then gradually cooled. The resulting white powder was filtered off. The white powder thus obtained was washed with hot n-hexane, and recrystallized with water-methanol to obtain 44 g of Eu(PMS)3(TPPO)8 in the form of white acicular crystals (yield: 85%). The TG-DTA was measured for these crystals, and it was found from the weight reduction at 100° C. that the number of moles of bound water per mole of complex was 2.93. The IR, NMR, UV absorption characteristics, and elemental analysis results for the obtained Eu(PMS)3(TPPO)8(H2O)2.93 are given below.
Eu(PMS)3(TPPO)8(H2O)2.93 obtained by the above synthesis method was dried in vacuo for 3 hours at 140° C. and a reduced pressure of […]. TG-DTA measurement for the resulting white powder was carried out to obtain a weight reduction at 100° C. It was found from the obtained value that the number of moles of bound water per mole of complex was 0.18.

[3] = Miscibility with a polymer matrix, visual evaluation; design: key to Miscibility, PMMA: ⊚: dissolves up to 30 wt %; ◯: dissolves up to 5 wt %; Δ: disperses up to 5 wt %, but there is turbidity; X: repelled at the polymer surface
Description: as §1
2) Miscibility with a Polymer Matrix
The rare earth complex serving as the sample was added in the concentrations listed with the evaluation criteria below relative to various media, and the miscibility was visually evaluated according to the following criteria. • ⊚: dissolves up to 30 wt % • ◯: dissolves up to 5 wt % • Δ: disperses up to 5 wt %, but there is turbidity • X: repelled at the polymer surface

[4] = after drying in vacuo at 140° C.
[5] = before drying (crystals as obtained), weight reduction at 100° C.

| SMILES | Miscibility, Acetone [1] | Miscibility, Chloroform [1] | Miscibility, Toluene [1] | Miscibility, Water [1] | Bound water (number of moles of bound water per mole of complex) [2] | Number of moles of bound water per mole of complex [2, 4] | Number of moles of bound water per mole of complex [2, 5] | Miscibility, Epoxy resin [3] | Miscibility, Nafion [3] | Miscibility, PMMA [3] |
| --- | --- | --- | --- | --- | --- | --- | --- | --- | --- | --- |
| O=P(c1ccccc1)(c1ccccc1)c1ccccc1.O=P(c1ccccc1)(c1ccccc1)c1ccccc1.O=P(c1ccccc1)(c1ccccc1)c1ccccc1.O=P(c1ccccc1)(c1ccccc1)c1ccccc1.O=P(c1ccccc1)(c1ccccc1)c1ccccc1.O=P(c1ccccc1)(c1ccccc1)c1ccccc1.O=P(c1ccccc1)(c1ccccc1)c1ccccc1.O=P(c1ccccc1)(c1ccccc1)c1ccccc1.O=S(=O)([N-]S(=O)(=O)C(F)(F)F)C(F)(F)F.O=S(=O)([N-]S(=O)(=O)C(F)(F)F)C(F)(F)F.O=S(=O)([N-]S(=O)(=O)C(F)(F)F)C(F)(F)F.[Yb+3] [Yb(PMS)3(TPPO)8] | ⊚ | ⊚ | ◯ | X | 0.27 | 0.27 | 1.52 | ◯ (dissolves up to 5 wt %) | ◯ (dissolves up to 5 wt %) | ◯ (dissolves up to 5 wt %) |
| O=P(c1ccccc1)(c1ccccc1)c1ccccc1.O=P(c1ccccc1)(c1ccccc1)c1ccccc1.O=P(c1ccccc1)(c1ccccc1)c1ccccc1.O=P(c1ccccc1)(c1ccccc1)c1ccccc1.O=P(c1ccccc1)(c1ccccc1)c1ccccc1.O=P(c1ccccc1)(c1ccccc1)c1ccccc1.O=P(c1ccccc1)(c1ccccc1)c1ccccc1.O=P(c1ccccc1)(c1ccccc1)c1ccccc1.O=S(=O)([N-]S(=O)(=O)C(F)(F)C(F)(F)F)C(F)(F)C(F)(F)F.O=S(=O)([N-]S(=O)(=O)C(F)(F)C(F)(F)F)C(F)(F)C(F)(F)F.O=S(=O)([N-]S(=O)(=O)C(F)(F)C(F)(F)F)C(F)(F)C(F)(F)F.[Eu+3] [Eu(PES)3(TPPO)8] | ⊚ | ⊚ | ◯ | X | 0.19 | 0.19 | – | ◯ (dissolves up to 5 wt %) | ◯ (dissolves up to 5 wt %) | ◯ (dissolves up to 5 wt %) |
| O=C(C=C([O-])C(F)(F)F)C(F)(F)F.O=C(C=C([O-])C(F)(F)F)C(F)(F)F.O=C(C=C([O-])C(F)(F)F)C(F)(F)F.[Nd+3] [Nd(HFA)3, reference compound] | ⊚ | X | X | X | 2.00 | – | – | ◯ (dissolves up to 5 wt %) | Δ (disperses up to 5 wt %, but there is turbidity) | X |
| O=P(c1ccccc1)(c1ccccc1)c1ccccc1.O=P(c1ccccc1)(c1ccccc1)c1ccccc1.O=P(c1ccccc1)(c1ccccc1)c1ccccc1.O=P(c1ccccc1)(c1ccccc1)c1ccccc1.O=P(c1ccccc1)(c1ccccc1)c1ccccc1.O=P(c1ccccc1)(c1ccccc1)c1ccccc1.O=P(c1ccccc1)(c1ccccc1)c1ccccc1.O=P(c1ccccc1)(c1ccccc1)c1ccccc1.O=S(=O)([N-]S(=O)(=O)C(F)(F)F)C(F)(F)F.O=S(=O)([N-]S(=O)(=O)C(F)(F)F)C(F)(F)F.O=S(=O)([N-]S(=O)(=O)C(F)(F)F)C(F)(F)F.[Tb+3] [Tb(PMS)3(TPPO)8] | ⊚ | ⊚ | ◯ | X | 0.08 | 0.08 | 1.27 | ◯ (dissolves up to 5 wt %) | ◯ (dissolves up to 5 wt %) | ◯ (dissolves up to 5 wt %) |
| O=C(C=C([O-])C(F)(F)F)C(F)(F)F.O=C(C=C([O-])C(F)(F)F)C(F)(F)F.O=C(C=C([O-])C(F)(F)F)C(F)(F)F.O=P(c1ccccc1)(c1ccccc1)c1ccccc1.O=P(c1ccccc1)(c1ccccc1)c1ccccc1.[Nd+3] [Nd(HFA)3(TPPO)2, reference compound] | ⊚ | ◯ | ◯ | X | 0.00 | – | – | ◯ (dissolves up to 5 wt %) | Δ (disperses up to 5 wt %, but there is turbidity) | Δ (disperses up to 5 wt %, but there is turbidity) |
| O=S(=O)([N-]S(=O)(=O)C(F)(F)F)C(F)(F)F.O=S(=O)([N-]S(=O)(=O)C(F)(F)F)C(F)(F)F.O=S(=O)([N-]S(=O)(=O)C(F)(F)F)C(F)(F)F.O=S(c1ccccc1)c1ccccc1.O=S(c1ccccc1)c1ccccc1.O=S(c1ccccc1)c1ccccc1.O=S(c1ccccc1)c1ccccc1.O=S(c1ccccc1)c1ccccc1.O=S(c1ccccc1)c1ccccc1.O=S(c1ccccc1)c1ccccc1.O=S(c1ccccc1)c1ccccc1.[Tb+3] [Tb(PMS)3(DPSO)8] | ⊚ | ◯ | ◯ | X | 0.00 | – | – | ◯ (dissolves up to 5 wt %) | ◯ (dissolves up to 5 wt %) | ◯ (dissolves up to 5 wt %) |
| O=S(=O)([N-]S(=O)(=O)C(F)(F)F)C(F)(F)F.O=S(=O)([N-]S(=O)(=O)C(F)(F)F)C(F)(F)F.O=S(=O)([N-]S(=O)(=O)C(F)(F)F)C(F)(F)F.[Nd+3].c1cnc2c(c1)ccc1cccnc12.c1cnc2c(c1)ccc1cccnc12.c1cnc2c(c1)ccc1cccnc12.c1cnc2c(c1)ccc1cccnc12 [Nd(PMS)3(Phen)m] | ⊚ | Δ | Δ | X | 0.00 | – | – | ◯ (dissolves up to 5 wt %) | ◯ (dissolves up to 5 wt %) | ◯ (dissolves up to 5 wt %) |
